The text below walks through data of the supplement of paper PMC10307832.

Compound in one experiment: CC1(COc2ccc3c(c2)ncn3-c2ccc3cccc(N4CCC(N)CC4)c3n2)COC1 [Crenolanib]
Put plainly: relative viability (nuclei count vs DMSO), 5 days (fraction); higher = more cells survive. The essentials: (§1)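 Lung cancer cell lines in 1536-well plates were kept overnight at 37 °C, then pinned with five library-drug doses (not always all listed) spaced by √10 on vehicle-anchored plates. After 5 days without medium change, cells were fixed, permeabilised and Hoechst-stained in one step, imaged at 4×, and nuclei were counted with MetaXpress. Viability is treated-well nuclei divided by vehicle-well nuclei, taken as the median over plates. Plates passed only with control CV below 25% and at least one doubling.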

Compound in the next experiment: O=C1NC(=O)[C@@H](c2cn3c4c(cccc24)CCC3)[C@@H]1c1c[nH]c2ccccc12 [Tivantinib]
The description is as above. A digest of the protocol:
as §1

Turning to RERF-LC-KJ, the relative viability was 1.04 with Crenolanib (0.01 µM); 1.01 in the experiment with Crenolanib (0.03162 µM); 1 with Crenolanib (0.1 µM); 1.06 with Crenolanib (0.3162 µM); 1.02 in the experiment with Crenolanib (1 µM); 1.01 with Tivantinib (0.01 µM). Besides, the values for the relative viability with Tivantinib (0.03162 µM), with Tivantinib (0.1 µM) and in the experiment with Tivantinib (0.3162 µM) were 1.03, 0.996 and 0.763, respectively.
For SK-LU-1, the relative viability with Crenolanib (0.01 µM) stood at 1.03; with Crenolanib (0.03162 µM), 1.04; with Crenolanib (0.1 µM), 0.755; with Crenolanib (0.3162 µM), 1.08; in the experiment with Crenolanib (1 µM), 1.04; in the experiment with Tivantinib (0.01 µM) it was 1.08. Moreover, the relative viability with Tivantinib (0.03162 µM) was determined as 1.08; with Tivantinib (0.1 µM) it was 0.987; in the experiment with Tivantinib (0.3162 µM) it was 1.01.
As for SK-MES-1, the relative viability came to 1.05 in the experiment with Crenolanib (0.01 µM); 1.01 with Crenolanib (0.03162 µM); 0.973 with Crenolanib (0.1 µM); 1.06 with Crenolanib (0.3162 µM); 0.936 with Crenolanib (1 µM); 1.06 with Tivantinib (0.01 µM). In addition, the values for the relative viability with Tivantinib (0.03162 µM), with Tivantinib (0.1 µM) and with Tivantinib (0.3162 µM) were 0.912, 0.91 and 0.915, respectively.
Take SW 900: the relative viability in the experiment with Crenolanib (0.01 µM) turned out to be 0.813; with Crenolanib (0.03162 µM) it was 0.851; with Crenolanib (0.1 µM) it was 1.06; in the experiment with Crenolanib (0.3162 µM), 0.86; in the experiment with Crenolanib (1 µM), 0.645; with Tivantinib (0.01 µM), 1.05. The relative viability in the experiment with Tivantinib (0.03162 µM) turned out to be 0.709; in the experiment with Tivantinib (0.1 µM), 0.928; in the experiment with Tivantinib (0.3162 µM), 0.878.
SW 1573: the relative viability came to 1.01 with Crenolanib (0.01 µM); 1.01 in the experiment with Crenolanib (0.03162 µM); 0.955 with Crenolanib (0.1 µM); 1.01 with Crenolanib (0.3162 µM); 0.986 with Crenolanib (1 µM); 1.02 with Tivantinib (0.01 µM). In addition, the relative viability is 0.866 with Tivantinib (0.03162 µM), 0.981 in the experiment with Tivantinib (0.1 µM) and 0.958 with Tivantinib (0.3162 µM).
